# From PubChem BioAssay (NCI)
#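 These data come from cells grown in 96-well plates and exposed to compound for 48 hours at five concentrations. Here, GI50 denotes the concentration required for 50% inhibition of growth. Definition used: TGI = concentration required for complete inhibition of growth.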
# Legend:
# Experiment in all cases: DTP human tumour cell line panel, 48 h
# [1] = tested on: RXF 393 renal
# [2] = tested on: NCI-H460 lung
# [3] = tested on: ACHN renal
# [4] = tested on: OVCAR-4 ovarian
# [5] = tested on: MCF7 breast
# [6] = tested on: SK-MEL-5 melanoma
# [7] = tested on: SNB-19 CNS
# [8] = tested on: CAKI-1 renal
# [9] = tested on: SNB-75 CNS
# [10] = tested on: HCC-2998 colon
# [11] = tested on: PC-3 prostate
# [12] = tested on: BT-549 breast
# [13] = tested on: K-562 leukemia
# [14] = tested on: NCI-H23 lung
# [15] = tested on: OVCAR-5 ovarian
# [16] = tested on: HS 578T breast
# [17] = tested on: SK-MEL-28 melanoma
# [18] = tested on: LOX IMVI melanoma
# [19] = tested on: RPMI-8226 leukemia
# [20] = tested on: HOP-92 NSCLC
# [21] = tested on: SF-539 CNS
# [22] = tested on: NCI-H226 lung
# [23] = tested on: MDA-MB-435
# [24] = tested on: MDA-MB-468 breast
# [25] = tested on: SR leukemia
# [26] = tested on: UACC-257 melanoma
# [27] = tested on: SK-OV-3 ovarian
# [28] = tested on: MALME-3M melanoma
# [29] = tested on: HT29 colon
# [30] = tested on: SN12C renal
smiles,measurement,setting,value
CCOC(=O)C(Cc1ccccc1)N1C(=O)/C(=C/N2N=C(c3ccc(OC)cc3)CC2c2ccc3ccccc3c2)SC1=S (centres undefined),GI50,[1],2220 nM
same,TGI,[1],6.36 µM
same,GI50,[2],3.19 µM
same,TGI,[2],13.8 µM
same,GI50,[3],4.86 µM
same,TGI,[3],21.7 µM
same,GI50,[4],6.63 µM
same,TGI,[4],40.1 µM
same,GI50,[5],2350 nM
same,TGI,[5],7.63 µM
same,GI50,[6],2240 nM
same,TGI,[6],5.51 µM
same,GI50,[7],3.35 µM
same,TGI,[7],16.4 µM
same,GI50,[8],3.76 µM
same,TGI,[8],21.7 µM
same,GI50,[9],2150 nM
same,TGI,[9],19.3 µM
same,GI50,[10],3.05 µM
same,TGI,[10],10.2 µM
same,GI50,[11],3.78 µM
same,TGI,[11],40.9 µM
same,GI50,[12],5.79 µM
same,TGI,[12],19.8 µM
same,GI50,[13],3.69 µM
same,TGI,[13],> 100 µM
same,GI50,[14],3.47 µM
same,TGI,[14],14.5 µM
same,GI50,[15],13.6 µM
same,TGI,[15],27.2 µM
same,GI50,[16],2620 nM
same,TGI,[16],16.6 µM
same,GI50,[17],3.5 µM
same,TGI,[17],13.1 µM
same,GI50,[18],2800 nM
same,TGI,[18],10.8 µM
same,GI50,[19],2790 nM
same,TGI,[19],> 100 µM
same,GI50,[20],2650 nM
same,TGI,[20],12.1 µM
same,GI50,[21],3.21 µM
same,TGI,[21],10.4 µM
same,GI50,[22],2560 nM
same,TGI,[22],12.8 µM
same,GI50,[23],3.57 µM
same,TGI,[23],17.8 µM
same,GI50,[24],2330 nM
same,TGI,[24],7.25 µM
same,GI50,[25],7.1 µM
same,TGI,[25],> 100 µM
same,GI50,[26],5.44 µM
same,TGI,[26],23.1 µM
same,GI50,[27],5.28 µM
same,TGI,[27],20.6 µM
same,GI50,[28],3.24 µM
same,TGI,[28],13.6 µM
same,GI50,[29],3.29 µM
same,TGI,[29],13.5 µM
same,GI50,[30],3.34 µM
